# Experimental data: ChEMBL document CHEMBL1140196, “Synthesis and biological activities of some new fluorinated coumarins and 1-aza coumarins” (Eur J Med Chem, 2008)
# Calls of active or inactive are those of the source. The rule behind the calls is not given here.
# Experiments:
# Type in all cases: functional
# [1] = system: Escherichia coli; assay: Antibacterial activity against Escherichia coli at 100 ug/mL after 48 hrs by cup-plate method
# [2] = system: Escherichia coli; assay: Antibacterial activity against Escherichia coli at 50 ug/mL after 48 hrs by cup-plate method
# [3] = system: Escherichia coli; assay: Antibacterial activity against Escherichia coli at 25 ug/mL after 48 hrs by cup-plate method; settings: for zone of inhibition at 25 µg/mL: read-out: IZ
# [4] = system: Bacillus; assay: Antibacterial activity against […] at 100 ug/mL after 48 hrs by cup-plate method
# [5] = system: Bacillus; assay: Antibacterial activity against […] at 50 ug/mL after 48 hrs by cup-plate method
# [6] = system: Bacillus; assay: Antibacterial activity against […] at 25 ug/mL after 48 hrs by cup-plate method; settings: for zone of inhibition at 25 µg/mL: read-out: IZ
# [7] = system: Aspergillus niger; assay: Antifungal activity against Aspergillus niger at 100 ug/mL after 48 hrs by cup-plate method
# [8] = system: Aspergillus niger; assay: Antifungal activity against Aspergillus niger at 50 ug/mL after 48 hrs by cup-plate method
# [9] = system: Aspergillus niger; assay: Antifungal activity against Aspergillus niger at 25 ug/mL after 48 hrs by cup-plate method; settings: for zone of inhibition at 25 µg/mL: read-out: IZ
# [10] = system: Macrophomina phaseolina; assay: Antifungal activity against Rhizoctonia bataticola at 100 ug/mL after 48 hrs by cup-plate method
# [11] = system: Macrophomina phaseolina; assay: Antifungal activity against Rhizoctonia bataticola at 50 ug/mL after 48 hrs by cup-plate method; settings: for zone of inhibition at 50 µg/mL: read-out: IZ
# [12] = system: Macrophomina phaseolina; assay: Antifungal activity against Rhizoctonia bataticola at 25 ug/mL after 48 hrs by cup-plate method
SMILES,inhibition at 100 µg/mL [1] [%],inhibition at 50 µg/mL [2] [%],Activity [3],inhibition at 100 µg/mL [4] [%],inhibition at 50 µg/mL [5] [%],Activity [6],inhibition at 100 µg/mL [7] [%],inhibition at 50 µg/mL [8] [%],inhibition at 25 µg/mL [9] [%],zone of inhibition at 25 µg/mL [9] [mm],inhibition at 100 µg/mL [10] [%],inhibition at 50 µg/mL [11] [%],zone of inhibition at 50 µg/mL [11] [mm],Activity [12],inhibition at 25 µg/mL [3] [%],zone of inhibition at 25 µg/mL [3] [mm],inhibition at 25 µg/mL [6] [%],zone of inhibition at 25 µg/mL [6] [mm],Activity [9],inhibition at 25 µg/mL [12] [%]
O=c1cc(COc2ccc(Br)cc2)c2ccc(Cl)cc2[nH]1,50,30,inactive,60,26,inactive,60,35,18,46,54,31,80,inactive,–,–,–,–,–,–
Cc1ccc2c(CNc3ccc(Br)cc3)cc(=O)oc2c1,64,35,–,63,37,–,55,23,–,–,59,35,90,inactive,13,38,21,50,inactive,–
Cc1ccc2c(COc3ccc(F)cc3)cc(=O)oc2c1,62,37,–,64,37,–,52,21,–,–,53,30,80,inactive,17,44,21,50,inactive,–
O=c1cc(COc2ccc(Br)cc2)c2cc(Cl)ccc2[nH]1,50,30,inactive,58,25,inactive,62,36,21,50,55,32,82,inactive,–,–,–,–,–,–
CCn1cc(C(=O)O)c(=O)c2cc(F)c(N3CCNCC3)cc21 [NORFLOXACIN],100,100,–,100,100,–,100,100,100,–,100,100,–,–,100,–,100,–,–,100
Cc1ccc2c(COc3ccc(Br)cc3)cc(=O)oc2c1,66,37,–,63,37,–,52,22,–,–,57,32,84,inactive,20,48,20,48,inactive,–
O=c1cc(CNc2ccc(F)cc2)c2ccccc2[nH]1,57,34,inactive,68,36,inactive,63,41,24,54,60,36,90,–,–,–,–,–,–,21
COC1=CC(=O)C[C@@H](C)[C@]12Oc1c(Cl)c(OC)cc(OC)c1C2=O [GRISEOFULVIN],100,100,–,100,100,–,100,100,100,–,100,100,–,–,100,–,100,–,–,100
